What is called pIC50 is the negative decadic logarithm of the IC50, by convention in mol/L.

Each structure is given as a SMILES string. pIC50: −log10 of the molar value. Some results are limits rather than exact numbers.

The target in series [1] is T1, Serine/threonine-protein kinase Sgk1 (Homo sapiens, UniProt O00141).
T1 sequence (O00141 whole entry): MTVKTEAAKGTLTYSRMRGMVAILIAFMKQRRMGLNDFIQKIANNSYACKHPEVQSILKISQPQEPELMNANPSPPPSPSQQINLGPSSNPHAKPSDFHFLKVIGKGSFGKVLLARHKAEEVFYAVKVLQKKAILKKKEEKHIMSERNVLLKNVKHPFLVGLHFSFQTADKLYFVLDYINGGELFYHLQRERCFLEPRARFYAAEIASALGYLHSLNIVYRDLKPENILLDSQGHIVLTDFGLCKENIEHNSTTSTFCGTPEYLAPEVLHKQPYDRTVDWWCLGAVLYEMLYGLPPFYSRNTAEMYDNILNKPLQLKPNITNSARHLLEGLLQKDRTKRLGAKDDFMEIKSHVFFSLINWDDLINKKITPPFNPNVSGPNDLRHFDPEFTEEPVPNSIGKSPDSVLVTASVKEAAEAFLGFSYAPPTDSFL
As to the kind of experiment: Inhibition of recombinant human SGK1 expressed in baculovirus expression system using 5-carboxyfluorescein -RPRAATF-NH2 as substrate preincubated for 30 mins followed by substrate addition in presence of 500 uM ATP and measured after 60 mins by microfluidics assay.

Series [2] deals with T1, Serine/threonine-protein kinase Sgk1. The experiment in a line: Inhibition of recombinant human SGK1 expressed in baculovirus expression system using 5-carboxyfluorescein -RPRAATF-NH2 as substrate preincubated for 30 mins followed by substrate addition in presence of 10 uM ATP and measured after 60 mins by microfluidics assay.
The nature of series [3]: Photostability of compound. It is filed as physicochemical.

As to `CN(C)CCCNC(=O)c1cc(-c2ccc(NS(=O)(=O)c3cccc(Cl)c3Cl)cc2)nc2[nH]ncc12`, the negative-log IC50 (pIC50) in series [1] was 6.20.

As to `COCCN1CCC(Oc2nc(-c3ccc(NS(=O)(=O)c4cc(Cl)ccc4F)cc3)nc3[nH]nc(C)c23)CC1`, the values for the pIC50 in series [2] and in series [1] were 8.52 and 8.30, respectively.

As to `NCCNC(=O)c1cc(-c2ccc(NS(=O)(=O)c3cccc(Cl)c3Cl)cc2)nc2[nH]ncc12`, the pIC50 in series [2] and in series [1] was more than 9.00 throughout.

Take `Cc1n[nH]c2nc(-c3ccc(NS(=O)(=O)c4cc(Cl)ccc4F)cc3)nc(OC3CCC(=O)CC3)c12`: the negative logarithm of the IC50 (pIC50) is 8.30 in series [2] and 7.74 in series [1].

In the case of `CCN1CCCC(Oc2nc(-c3ccc(NS(=O)(=O)c4cc(Cl)ccc4F)cc3)nc3[nH]nc(C)c23)C1` (stereo unspecified), the pIC50 in series [2] was 8.22.

As for `Cc1n[nH]c2nc(-c3ccc(NS(=O)(=O)c4cc(Cl)ccc4F)cc3)nc(OCC(F)(F)CN)c12`, the figures for the pIC50 in series [2] and in series [1] were 8.52 and 8.30, respectively.

Turning to `Cc1n[nH]c2nc(-c3ccc(NS(=O)(=O)c4cc(Cl)ccc4F)cc3)nc(OCCCN)c12`, the negative-log IC50 (pIC50) in series [2] and in series [1] was more than 8.70 each time.

Molecule `Nc1n[nH]c2nc(-c3ccc(NS(=O)(=O)c4cccc(Cl)c4F)cc3)ccc12` returned a Stability in series [3] of 87.2%.

For `Nc1n[nH]c2nc(-c3ccc(NS(=O)(=O)c4cc(Cl)c(F)cc4F)cc3)ncc12`, the Stability in series [3] was determined as 98.6%.

Turning to `O=C(NCc1ncc[nH]1)c1cc(-c2ccc(NS(=O)(=O)c3cccc(Cl)c3Cl)cc2)nc2[nH]ncc12`, the pIC50 in series [2] is more than 9.00; in series [1], 6.89.

Consider `O=C(NC1CCN(CC2CC2)C1)c1cc(-c2ccc(NS(=O)(=O)c3cccc(Cl)c3Cl)cc2)nc2[nH]ncc12` (racemic), for which the values for the negative logarithm of the IC50 (pIC50) in series [2] and in series [1] were 9.00 and 7.46, respectively.

As for `CN(CCO)C(=O)c1cc(-c2ccc(NS(=O)(=O)c3cccc(Cl)c3Cl)cc2)nc2[nH]ncc12`, the results for the pIC50 in series [2] and in series [1] were more than 9.00 and 7.62, respectively.

As to `O=C(NCc1nncs1)c1cc(-c2ccc(NS(=O)(=O)c3cccc(Cl)c3Cl)cc2)nc2[nH]ncc12`, the pIC50 in series [2] is 6.96; in series [1] it was 5.90.

With `CN1CCC(NC(=O)c2cc(-c3ccc(NS(=O)(=O)c4cccc(Cl)c4Cl)cc3)nc3[nH]ncc23)C1` (racemic), the pIC50 in series [2] was more than 9.00; in series [1], 7.68.

For `O=C(NC1CCN(CCO)C1)c1cc(-c2ccc(NS(=O)(=O)c3cccc(Cl)c3Cl)cc2)nc2[nH]ncc12` (racemic), the negative logarithm of the IC50 (pIC50) in series [2] was 9.00; in series [1], 7.92.

On to `O=C(NCc1ncn[nH]1)c1cc(-c2ccc(NS(=O)(=O)c3cccc(Cl)c3Cl)cc2)nc2[nH]ncc12`, for which the results for the pIC50 in series [2] and in series [1] were 9.00 and 6.97, respectively.

For `Cc1n[nH]c2nc(-c3ccc(NS(=O)(=O)c4cc(Cl)ccc4F)cc3)nc(OCC(CO)CO)c12`, the negative-log IC50 (pIC50) in series [2] was 9.00; in series [1], 8.70.

In the case of `Cc1n[nH]c2nc(-c3ccc(NS(=O)(=O)c4cc(Cl)ccc4F)cc3)nc(OCCC(=O)N(C)C)c12`, the negative-log IC50 (pIC50) in series [2] is 7.82; in series [1], 6.36.

For `Cc1n[nH]c2nc(-c3ccc(NS(=O)(=O)c4cc(Cl)ccc4F)cc3)nc(OCC3(CN)COC3)c12`, the pIC50 in series [2] and in series [1] was 9.00 throughout.

Take `Cc1n[nH]c2nc(-c3ccc(NS(=O)(=O)c4cc(Cl)ccc4F)cc3)nc(OC3CCNCC3)c12`: the pIC50 in series [2] and in series [1] was 9.00 throughout.

Consider `Cc1n[nH]c2nc(-c3ccc(NS(=O)(=O)c4cc(Cl)ccc4F)cc3)nc(OC3CCC(O)CC3)c12` (stereo unspecified), for which the negative logarithm of the IC50 (pIC50) in series [2] and in series [1] was more than 8.70 in each case.

Take `CCOc1nc(-c2ccc(NS(=O)(=O)c3cc(Cl)ccc3F)cc2)nc2[nH]nc(C)c12`: the values for the pIC50 in series [2] and in series [1] were 7.64 and 6.74, respectively.

In series [3], `Nc1n[nH]c2nc(-c3ccc(NS(=O)(=O)c4ccccc4Cl)cc3)ccc12` gave a Stability of 46.1%.

With `O=C(N[C@@H]1CCNC1)c1cc(-c2ccc(NS(=O)(=O)c3cccc(Cl)c3Cl)cc2)nc2[nH]ncc12`, the negative-log IC50 (pIC50) in series [2] and in series [1] was more than 9.00 throughout.

On to `CCN1CCC(Oc2nc(-c3ccc(NS(=O)(=O)c4cc(Cl)ccc4F)cc3)nc3[nH]nc(C)c23)CC1`, for which the pIC50 was 8.70 in series [2] and 8.40 in series [1].

`Cc1n[nH]c2nc(-c3ccc(NS(=O)(=O)c4cc(Cl)ccc4F)cc3)nc(OC3CC(C)(C)NC(C)(C)C3)c12`: the results for the negative logarithm of the IC50 (pIC50) in series [2] and in series [1] were 8.52 and 8.40, respectively.

With `Nc1n[nH]c2nc(-c3ccc(NS(=O)(=O)c4cccc(Cl)c4Cl)cc3)ccc12`, the Stability in series [3] amounted to 10.1%.

`Cc1n[nH]c2nc(-c3ccc(NS(=O)(=O)c4cc(Cl)ccc4F)cc3)nc(OC3CCN(CC(F)(F)F)CC3)c12`: the pIC50 in series [2] is 7.26; in series [1] it was 6.58.

As to `CC(C)NC(=O)c1cc(-c2ccc(NS(=O)(=O)c3cccc(Cl)c3Cl)cc2)nc2[nH]ncc12`, the negative logarithm of the IC50 (pIC50) is 7.17 in series [2] and 4.75 in series [1].

Take `Nc1nc(CNC(=O)c2cc(-c3ccc(NS(=O)(=O)c4cccc(Cl)c4Cl)cc3)nc3[nH]ncc23)cs1`: the pIC50 in series [2] was 7.72; in series [1], 5.61.

Regarding `O=C(NCc1nn[nH]n1)c1cc(-c2ccc(NS(=O)(=O)c3cccc(Cl)c3Cl)cc2)nc2[nH]ncc12`, the pIC50 is 8.40 in series [2] and 6.09 in series [1].

As to `Cc1n[nH]c2nc(-c3ccc(NS(=O)(=O)c4cc(Cl)ccc4F)cc3)nc(Oc3ccc(N)nc3)c12`, the negative logarithm of the IC50 (pIC50) in series [2] is 8.40; in series [1], 7.96.

Take `CC(C)N1CC[C@H](NC(=O)c2cc(-c3ccc(NS(=O)(=O)c4cccc(Cl)c4Cl)cc3)nc3[nH]ncc23)C1`: the values for the negative-log IC50 (pIC50) in series [2] and in series [1] were 8.40 and 7.42, respectively.

With `O=C(NCc1cc[nH]n1)c1cc(-c2ccc(NS(=O)(=O)c3cccc(Cl)c3Cl)cc2)nc2[nH]ncc12`, the pIC50 in series [1] is 6.02.

For `O=C(NCc1cocn1)c1cc(-c2ccc(NS(=O)(=O)c3cccc(Cl)c3Cl)cc2)nc2[nH]ncc12`, the pIC50 was more than 9.00 in series [2] and 6.49 in series [1].

On to `CNC(=O)c1cc(-c2ccc(NS(=O)(=O)c3cccc(Cl)c3Cl)cc2)nc2[nH]ncc12`, for which the negative-log IC50 (pIC50) in series [2] is 8.40; in series [1], 6.03.

On to `Cc1n[nH]c2nc(-c3ccc(NS(=O)(=O)c4cc(Cl)ccc4F)cc3)nc(OCC3CNCCO3)c12` (stereo unspecified), for which the pIC50 in series [2] and in series [1] was 8.70 in each case.

On to `O=C(NCCn1cnnc1)c1cc(-c2ccc(NS(=O)(=O)c3cccc(Cl)c3Cl)cc2)nc2[nH]ncc12`, for which the pIC50 was 8.52 in series [2] and 6.22 in series [1].

Take `CCN1CCC(CNC(=O)c2cc(-c3ccc(NS(=O)(=O)c4cccc(Cl)c4Cl)cc3)nc3[nH]ncc23)C1` (racemic): the pIC50 is more than 9.00 in series [2] and 6.96 in series [1].

Take `Cc1n[nH]c2nc(-c3ccc(NS(=O)(=O)c4cc(Cl)ccc4F)cc3)nc(OC3CCNCC3(F)F)c12` (stereo unspecified): the pIC50 in series [2] and in series [1] was 9.00 each time.

For `O=C(NC1CCN(C2CC2)C1)c1cc(-c2ccc(NS(=O)(=O)c3cccc(Cl)c3Cl)cc2)nc2[nH]ncc12` (racemic), the pIC50 in series [2] was 8.22; in series [1], 6.21.

On to `Cc1n[nH]c2nc(-c3ccc(NS(=O)(=O)c4cc(Cl)ccc4F)cc3)nc(OCCCO)c12`, for which the results for the negative-log IC50 (pIC50) in series [2] and in series [1] were 8.70 and 8.00, respectively.

On to `Cc1n[nH]c2nc(-c3ccc(NS(=O)(=O)c4cc(Cl)ccc4F)cc3)nc(OC3CCCNC3)c12` (stereo unspecified), for which the pIC50 in series [2] and in series [1] was 9.00 each time.

`Cc1n[nH]c2nc(-c3ccc(NS(=O)(=O)c4cc(Cl)ccc4F)cc3)nc(OC3CCNCC3F)c12` (stereo unspecified): the negative-log IC50 (pIC50) in series [2] and in series [1] was 9.00 in each case.

On to `Cc1n[nH]c2nc(-c3ccc(NS(=O)(=O)c4cc(Cl)ccc4F)cc3)nc(OC3CC(C)(C)N(C)C(C)(C)C3)c12`, for which the pIC50 in series [2] is 8.70; in series [1], 8.52.

As to `NC(=O)c1cc(-c2ccc(NS(=O)(=O)c3cccc(Cl)c3Cl)cc2)nc2[nH]ncc12`, the negative logarithm of the IC50 (pIC50) is 9.00 in series [2] and 6.63 in series [1].

As for `Cc1n[nH]c2nc(-c3ccc(NS(=O)(=O)c4cc(Cl)ccc4F)cc3)nc(Oc3ccc(O)nc3)c12`, the pIC50 in series [2] was 8.70; in series [1] it was 8.40.

Take `CN1CCC(CNC(=O)c2cc(-c3ccc(NS(=O)(=O)c4cccc(Cl)c4Cl)cc3)nc3[nH]ncc23)C1` (racemic): the pIC50 in series [2] is 7.85; in series [1], 7.35.

Turning to `CN1CC(NC(=O)c2cc(-c3ccc(NS(=O)(=O)c4cccc(Cl)c4Cl)cc3)nc3[nH]ncc23)C1`, the negative-log IC50 (pIC50) in series [2] and in series [1] was more than 9.00 throughout.

As to `O=C(c1cc(-c2ccc(NS(=O)(=O)c3cccc(Cl)c3Cl)cc2)nc2[nH]ncc12)N1CCNCC1`, the pIC50 in series [2] was 8.70; in series [1], 5.89.

In the case of `O=C(NCCc1cc[nH]n1)c1cc(-c2ccc(NS(=O)(=O)c3cccc(Cl)c3Cl)cc2)nc2[nH]ncc12`, the pIC50 was 8.00 in series [2] and 6.61 in series [1].

With `Cc1n[nH]c2nc(-c3ccc(NS(=O)(=O)c4cc(Cl)ccc4F)cc3)nc(OCC3CN(C(C)C)C3)c12`, the pIC50 in series [2] and in series [1] was 9.00 throughout.

With `Cc1n[nH]c2nc(-c3ccc(NS(=O)(=O)c4cc(Cl)ccc4F)cc3)nc(OC3CCOCC3)c12`, the negative logarithm of the IC50 (pIC50) is 8.30 in series [2] and 7.85 in series [1].

Turning to `CCNC(=O)c1cc(-c2ccc(NS(=O)(=O)c3cccc(Cl)c3Cl)cc2)nc2[nH]ncc12`, the values for the pIC50 in series [2] and in series [1] were 8.22 and more than 5.72, respectively.

For the origin of these results see ChEMBL document CHEMBL5042500 (J Med Chem, 2022).
